Results on 2 compounds are retold here after US8545898B2, “Broad-spectrum antiviral composition with excellent preservation stabilty” (Taiko Pharmaceutical Co., Ltd., priority 2007, dated 2013).

Assay [1] concerns the target human hepatitis B surface antigen (HBsAg) (Hepatitis B virus genotype C subtype adr, UniProt P12934). Nature of the assay: Anti-HBsAg activity, HBsAg titer by chemiluminescent immunoassay. The format is biochemical. Particulars: 100 ppm; for HBsAg antigen titer: untreated 54 IU/ml. The method, then:
For the antiviral testing, various concentrations of the chlorine dioxide solutions (agent A, agent B) were prepared and left in respective containers made of synthetic resin for 8 months. Specifically, each of the chlorine dioxide solutions obtained in each of Examples 1 and 2 was placed in a container having an opening with a diameter of 2 cm, and after closing a screw-cap, the container was left at room temperature for 8 months. Subsequently, an antiviral activity effect of the solution was examined. As controls, sodium hypochlorite (agent C), stabilized chlorine dioxide (sodium chlorite) (agent D), and povidone-iodine (agent E) were used. The agents C to E were not preserved for 8 months, and subjected to the test immediately after the purchase.
Each agent was added to human hepatitis B surface antigen (HBsAg), and after 1, 2, 3 or 4 days of sensitization, the agent was neutralized with a sodium thiosulfate solution, and HBsAg titer was measured using a chemiluminescent immunoassay “Architect-HBsAg (manufactured by Dainabot Co., Ltd.)”. An anti-HBsAg activity of the agent was evaluated.

For assay [2], the system named is canine parvovirus <CPV(Y-1)>. Nature of the assay: Antiviral testing (canine parvovirus), TCID50 by swine hemagglutination test, CRFK cells. Type of assay: cell-based.

Like-named read-outs stand apart in the source and are kept apart here.

human hepatitis B surface antigen (HBsAg), sequence (P12934 whole entry): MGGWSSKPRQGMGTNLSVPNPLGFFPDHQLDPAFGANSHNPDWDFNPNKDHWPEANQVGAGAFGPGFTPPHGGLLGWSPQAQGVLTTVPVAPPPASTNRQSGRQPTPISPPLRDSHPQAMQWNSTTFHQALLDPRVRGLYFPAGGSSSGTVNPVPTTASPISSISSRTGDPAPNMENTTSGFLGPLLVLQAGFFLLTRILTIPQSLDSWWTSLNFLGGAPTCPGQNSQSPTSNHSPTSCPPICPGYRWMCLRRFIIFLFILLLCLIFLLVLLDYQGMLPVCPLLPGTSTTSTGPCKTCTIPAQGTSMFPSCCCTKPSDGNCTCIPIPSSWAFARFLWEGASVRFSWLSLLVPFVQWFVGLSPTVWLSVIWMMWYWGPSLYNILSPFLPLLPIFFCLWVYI

For the compound `OCl` [sodium hypochlorite, Sodium hypochlorite], in assay [1] (1 to 4 days), the anti-HBsAg activity result was “absence of an anti-HBsAg activity”. Also, the HBsAg antigen titer stood at 50 IU/ml in assay [1] (sensitized time 1 day), 51 IU/ml in assay [1] (sensitized time 2 days), 51 IU/ml in assay [1] (sensitized time 3 days) and 49 IU/ml in assay [1] (sensitized time 4 days). Besides, the “CPV infectivity titer remaining” value in assay [2] (10 ppm, after 180 seconds) was found to be 100 TCID50. Moreover, the “decrease in CPV infectivity titer” value in assay [2] (100 ppm, after 120 seconds) is listed as ≥ 99.99%.

In the case of “sodium chlorite [stabilized chlorine dioxide solution]”, in assay [2], the “decrease in CPV infectivity titer” value is “no decrease in the infectivity titer was observed”.
